Laboratory results reported in patent publication US11844800B2, “Methods and compositions for predicting and preventing relapse of acute lymphoblastic leukemia” (Massachusetts Institute of Technology, priority 2019, dated 2023).

Experiments:
[1] = system: B-cell ALL leukemic cells in bone marrow; experiment: Bone marrow involvement at MRD in B-cell ALL PDX mice after mono- or combination therapy; assay type: in vivo; conditions: treated for 28 days
Experimental: Mice are treated with ponatinib alone, ponatinib in combination with QNZ (a TNF-alpha inhibitor), ponatinib in combination with fostamatinib (a proximal pre-BCR pathway inhibitor), ponatinib in combination with ibrutinib (a proximal pre-BCR pathway inhibitor), ponatinib in combination with duvelisib (a distal pre-BCR inhibitor), or ponatinib in combination with losmapimod (a p38 MAPK inhibitor) for 28 days. Bone marrow aspirates are obtained, and leukemic cells are isolated using conventional Ficoll centrifugation and FACS sorting methods. The leukemic cells are counted as bone marrow involvement at MRD, and it is compared to that before treatment.

[2] = system: BCR-ABL mutant B-cell ALL; assay type: in vivo, mice; conditions: 13 models, n=88 animals

With `Cc1ccc(C(=O)Nc2ccc(CN3CCN(C)CC3)c(C(F)(F)F)c2)cc1C#Cc1cnc2cccnn12` [ponatinib] the “bone marrow involvement at MRD” value [1] was 8%.

In the case of `O=C(Nc1ccc(OC(F)(F)Cl)cc1)c1cnc(N2CC[C@@H](O)C2)c(-c2cc[nH]n2)c1` [ABL001, asciminib], the “Event free survival (remission/relapse, in words)” value [2] is reported as “significant earlier relapse”.
